Results from patent US7989467B2, “Use of indole-derived compounds for the preparation of a medicament that can be used to treat diseases related to the splicing process” (Centre National de la Recherche Scientifique (CNRS), priority 2003, dated 2011).

Columns and labels:
M3S1 pre-messenger = assay: In vitro splicing of M3S1 pre-messenger RNA (dependent on ESE recognized by SR ASF/SF2 protein); assay type: biochemical, human; conditions: for effect on M3S1 splicing: concentration not given; for M3S1 splicing inhibition: 10 μM, FIG. 2
Description: The compounds presented in Tables 1 and 2 below were tested in a concentration range of 1 μM, 10 μM and 100 μM, and were selected initially on the basis of their capacity to inhibit, in vitro, the splicing of two types of model pre-mRNAs.
The second type of M3S1 pre-messenger is derived from the human […] gene (Labourier, E. et al. (1999), Antagonism between RSF1 and SR proteins for both splice-site recognition in vitro and Drosophila development. Genes Dev. 13, 740-753) and its splicing is strictly dependent on an auxiliary ESE sequence recognized specifically by the SR ASF/SF2 protein. Conditions for the transcription, splicing and analysis of this pre-messenger's products are identical to those used for the MINX pre-messenger.

[1] = system: M3S1-PDH pre-messenger RNA; assay: Splicing of M3S1-PDH pre-messenger RNA (pyruvate dehydrogenase E1α subunit, mutated intron 7); assay type: biochemical, human; conditions: for M3S1-PDH splicing: FIG. 4B
From the text: In this substrate the sequences corresponding to exon 7-intron 7-exon 8 of the gene coding for the pyruvate dehydrogenase E1α subunit (PDH E1α) are inserted downstream from the M3S1 sequence (M3S1-PDH, see FIG. 4A). Intron 7 of this transcript contains a point mutation which creates a high affinity SR hSC35 protein binding site. This mutation, which causes the loss of PDH E1α expression in patients suffering from Leigh syndrome (an encephalopathy in children), leads to the appearance of a cryptic site 46 nucleotides downstream from the authentic 5′ splicing site (FIG. 4A). This substrate, likely to give rise to two products, one with and one without the 46 nucleotides of PDH intron 7, is ideal for determining the specificity of the compounds with respect to the various ESE sequences present within the same transcript.
Compound C7 is thus an excellent inhibitor of defective splicing that is dependent on hSC35 ESE, but not on authentic splicing. This compound can thus be envisaged for treating patients suffering from this encephalopathy.

HIV = assay: Inhibition of HIV multiplication in PMA-stimulated U1 cells (RT-PCR of viral transcripts); assay type: cell-based; conditions: 2.5 μM; 24 h; U1 cells treated with 50 nM PMA; FIG. 6
From the text: To this end, human […] cell line U1, which is chronically infected by HIV (Folks et al., 1988. Characterization of a promonocyte clone chronically infected with HIV and inducible by 13-phorbol-12-myristate acetate. J. Immunol., 140: 1117-1122) and which produces large quantities of virus after stimulation by PMA (phorbol myristate acetate), was used. As a result, this cell line constitutes an excellent model to mimic the transition between the latency phase and the viral production phase observed in patients infected by HIV.
The results of this experiment are presented in FIG. 6 in which U1 cells (5×10^5) were treated with 50 nM of PMA in the absence (FIG. 6, lane 1) or in the presence of 2.5 μM of compounds C47, C97, C58, C57, C92, C91, C90, C83, C73, C34, C51, C45, C13, C10, C44, C6, C7, C41, C50, C32, C2, C1, C29, C35 and C99 (FIG. 6, lanes 3-27, respectively). After 24 h of treatment, the virus's transcripts were amplified by RT-PCR using specific VIH, BSS and SJ4.7A primers (Jacquenet et al., 2001, A second exon splicing silencer within human immunodeficiency virus type 1 tat exon 2 represses splicing of Tat mRNA and binds protein hnRNP. H. J. Biol. Chem. 276: 40464-75) and a radioactive tracer (α-32P) CTP.

SRp55 = target: T1, SRp55 (Homo sapiens, UniProt Q13247); assay: In vitro splicing results, Table 3: SRp55; assay type: biochemical; conditions: summary of Table 3
T1 sequence (Q13247 1-344): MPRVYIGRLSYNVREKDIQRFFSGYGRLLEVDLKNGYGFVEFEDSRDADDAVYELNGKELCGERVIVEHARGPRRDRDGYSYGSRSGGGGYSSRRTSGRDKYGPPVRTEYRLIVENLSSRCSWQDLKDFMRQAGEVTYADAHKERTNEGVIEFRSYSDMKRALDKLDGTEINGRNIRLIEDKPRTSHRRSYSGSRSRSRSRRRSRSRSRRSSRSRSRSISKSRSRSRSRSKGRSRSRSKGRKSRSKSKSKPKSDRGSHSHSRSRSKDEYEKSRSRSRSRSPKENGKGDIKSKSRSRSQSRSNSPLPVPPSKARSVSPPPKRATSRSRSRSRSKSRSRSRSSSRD

GFP-ESE transgene = assay: ESE-dependent splicing of GFP-ESE transgene mRNA in HeLa cells (RT-PCR); assay type: cell-based, human; conditions: 1 μM per FIG. 5 legend
From the text: In order to test the efficiency of indole derivatives ex vivo, […] HeLa cell lines were established stably expressing a transgene corresponding to GFP whose sequence was interrupted by an ESE sequence flanked by two identical introns of the human […] gene described in Example 1 (see FIG. 5A).
To detect the messenger RNAs arising from the splicing of this gene, the RT-PCR technique was used with primers in the GFP sequence on each side of the ESE and the PCR products were analyzed on agarose gel.
In almost all the lines established, a single fragment of 250 base pairs (bp) was amplified by PCR (FIG. 5A, lanes 2 and 3) and it corresponds to an RNA messenger which included the ESE between the two GFP sequences.

[2] = system: M3S1 transcript splicing complexes; assay: In vitro splicing-complex formation on M3S1 transcript; assay type: biochemical, human; conditions: 50 μM; 30 minutes of incubation; FIG. 3
From the text: The activity of the products has also been tested in splicing-complex formation reactions in vitro (FIG. 3) as described in Pilch B. et al. (Specific inhibition of serine- and arginine-rich splicing factors, phosphorylation, spliceosome assembly, and splicing by the antitumor drug NB-506. Cancer Res. 2001. 61, 6876-6884).
M3S1 transcript splicing reactions in the presence of various compounds according to the invention performed under the same conditions as those described for FIG. 1 are stopped after 30 minutes of incubation by the addition of heparin and glycerol at a final concentration of 1 mg/ml and 15%, respectively.

`COc1ccc2[nH]c3c(C)c4ccncc4c(NCCCN(C)C)c3c2c1` [C7, N′(9-methoxy-5-methyl-6H-pyrido[4,3-b]carbazol-11-yl)-N,N-dimethyl-propane-1,3-diamine] was tested, and the “effect on M3S1 splicing” value (M3S1 pre-messenger) was “do not modify M3S1 splicing”, the “RNA species from normal PDH splicing” value ([1]; FIG. 4B lane 4) was “has no effect” and the “formation of RNA species arising from PDH splicing that include the 46 nucleotides of intron 7 (defective splicing dependent on hSC35 ESE)” value ([1]; FIG. 4B lane 4) was “blocks the formation”.
For `CCN(CC)CCNc1nccc2c(C)c3c(cc12)c1cc(OC)ccc1n3C` [C50, N,N-diethyl-N′-(9-methoxy-5,6-dimethyl-6H-pyrido[4,3-b]carbazol-1-yl)-ethane-1,2-diamine], the “inhibition of HIV multiplication (amplification of viral transcripts)” value (HIV) was “excellent inhibitors of HIV multiplication” and the “inhibit the activity of the SRp55 protein specifically” value (SRp55) was “inhibit the activity of the SRp55 protein specifically”.
With `COc1ccc2[nH]c3c(C)c4ccnc(NCCCN5CCN(CCCN)CC5)c4cc3c2c1` [C14] the “splicing profile of the GFP-ESE transgene (RT-PCR fragment without ESE)” value (GFP-ESE transgene) was “revealed a fragment of 194 bp”, the “inhibition of the formation of splicing complexes A and B on M3S1” value [2] was “inhibition of the formation of splicing complexes A and B” and the M3S1 splicing inhibition (M3S1 pre-messenger) was “M3S1 splicing inhibition”.
In the case of `Cc1c2ccnc(Cl)c2cc2c3cn(C)ccc-3nc12` [C3, 10-chloro-2,6-dimethyl-2H-pyrido[3′,4′:4,5]pyrrolo[2,3-g]isoquinoline], the “inhibition of the formation of splicing complexes A and B on M3S1” value [2] is reported as “inhibition of the formation of splicing complexes A and B” and the M3S1 splicing inhibition (M3S1 pre-messenger) is reported as “M3S1 splicing inhibition”.
For `CC(=O)Oc1nccc2c(C)c3[nH]c4ccc(O)cc4c3cc12` [C4, 9-hydroxy-5-methyl-6H-pyrido[4,3-b]carbazol-1-yl acetic acid ester], the “effect on M3S1 splicing” value (M3S1 pre-messenger) was “inactive on M3S1” and the M3S1-PDH splicing [1] was “has no effect”.
With `CNCCCNc1ncc(C)c2[nH]c3ccc4cc(OC)ccc4c3c12` [C57, N-(3-methoxy-8-methyl-7H-benzo[e]pyrido[4,3-b]indol-11-yl)-N′-methyl-propane-1,3-diamine] the “inhibition of HIV multiplication (amplification of viral transcripts)” value (HIV) was “excellent inhibitors of HIV multiplication” and the “inhibit the activity of the SRp55 protein specifically” value (SRp55) was “inhibit the activity of the SRp55 protein specifically”.
For `CCN(CC)CCC(C)Nc1nccc2c(C)c3c(cc12)c1cnccc1n3C` (stereo not shown) [C28, N-3-(5,6-dimethyl-5H-pyrido[3′,4′:4,5]pyrrolo[2,3-g]isoquinolin-10-yl)-N,N-1-diethyl-butane-1,3-diamine], the “splicing profile of the GFP-ESE transgene (RT-PCR fragment without ESE)” value (GFP-ESE transgene) was “revealed a fragment of 194 bp”.
For `CCN(CC)CCCNc1nccc2c(C)c3[nH]c4ccc(OC)cc4c3cc12` [C8, N,N-diethyl-N′-(9-methoxy-5-methyl-6H-pyrido[4,3-b]carbazol-1-yl)-propane-1,3-diamine], the M3S1-PDH splicing [1] was “Inhibition of M3S1-PDH”.
